pIC50: −log10 of the molar value. Calls of active or inactive are those of the source. The rule behind the calls is not given here.
Tests used:
SK-MEL-28 [1] = assay: Anti-migration activity in human SK-MEL-28 cells assessed as distance travelled at 4.16 uM by wound healing assay based phase contrast microscopy; type: functional
HT-29 = assay: Cytotoxicity against human HT-29 cells assessed as cell growth inhibition incubated for 48 hrs by MTT assay; type: functional, cell-based; settings: HT-29, 48 h
SK-MEL-28 [2] = assay: Induction of apoptosis in human SK-MEL-28 cells assessed as cell membrane disruption at 2.08 to 8.32 uM incubated for 48 hrs by phase contrast microscopy; type: functional, cell-based; settings: dose 2.08-8.32 µM, DDE = dose-dependent effect
SK-MEL-28 [3] = assay: Induction of apoptosis in human SK-MEL-28 cells assessed as cell shrinkage at 2.08 to 8.32 uM incubated for 48 hrs by AO/EB staining based fluorescence microscopy; type: functional; settings: dose 2.08-8.32 µM, DDE = dose-dependent effect
SK-MEL-28 [4] = assay: Cytotoxicity against human SK-MEL-28 cells assessed as cell growth inhibition incubated for 48 hrs by MTT assay; type: functional, cell-based; settings: SK-MEL-28, 48 h
[5] = target: DNA topoisomerase 2-alpha (Homo sapiens) (UniProt P11388); assay: Inhibition of DNA topoisomerase 2 (unknown origin) assessed as reduction in decatenation using kDNA as substrate incubated for 30 mins measured by agarose gel electrophoresis method
SK-MEL-28 [6] = assay: Induction of apoptosis in human SK-MEL-28 cells assessed as apoptotic body fragmentation at 2.08 to 8.32 uM incubated for 48 hrs by AO/EB staining based fluorescence microscopy; type: functional, cell-based; settings: dose 2.08-8.32 µM, DDE = dose-dependent effect
[7] = target: T1, DNA topoisomerase 1 (Homo sapiens) (UniProt P11387); assay: Inhibition of DNA topoisomerase 1 (unknown origin) assessed as reduction in pBR322 DNA relaxation at 10 uM incubated for 30 mins measured by agarose gel electrophoresis method relative to control
T1 sequence (whole entry): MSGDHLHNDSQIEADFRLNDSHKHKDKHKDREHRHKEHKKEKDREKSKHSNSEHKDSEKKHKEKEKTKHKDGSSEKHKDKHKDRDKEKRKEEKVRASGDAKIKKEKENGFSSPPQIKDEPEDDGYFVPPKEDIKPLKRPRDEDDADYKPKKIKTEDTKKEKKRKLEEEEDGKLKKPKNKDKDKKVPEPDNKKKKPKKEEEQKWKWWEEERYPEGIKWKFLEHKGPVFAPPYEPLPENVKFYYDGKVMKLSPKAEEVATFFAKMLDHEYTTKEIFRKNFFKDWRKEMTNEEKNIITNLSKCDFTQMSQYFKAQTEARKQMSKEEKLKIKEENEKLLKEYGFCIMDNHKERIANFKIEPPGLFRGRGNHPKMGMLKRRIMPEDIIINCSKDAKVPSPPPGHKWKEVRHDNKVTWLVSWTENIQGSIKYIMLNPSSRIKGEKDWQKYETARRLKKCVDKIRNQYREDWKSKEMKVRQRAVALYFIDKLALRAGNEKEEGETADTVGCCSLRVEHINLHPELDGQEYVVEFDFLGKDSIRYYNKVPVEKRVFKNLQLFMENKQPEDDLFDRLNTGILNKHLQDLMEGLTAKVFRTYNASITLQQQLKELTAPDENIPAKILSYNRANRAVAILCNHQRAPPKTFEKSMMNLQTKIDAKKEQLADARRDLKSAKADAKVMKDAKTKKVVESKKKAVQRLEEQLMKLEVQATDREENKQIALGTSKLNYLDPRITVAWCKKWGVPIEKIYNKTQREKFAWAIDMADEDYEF

Calf thymus DNA [8] = assay: Binding affinity to calf thymus DNA assessed as hyperchromicity at 10 uM by circular dichroism spectroscopy; type: nucleic-acid assay; settings: Bos taurus
SK-MEL-28 [9] = assay: Anti-migration activity in human SK-MEL-28 cells assessed as distance travelled at 4.16 uM incubated for 48 hrs by wound healing assay based phase contrast microscopy; type: functional
SK-MEL-28 [10] = assay: Anti-migration activity in human SK-MEL-28 cells assessed as distance travelled at 8.32 uM incubated for 48 hrs by wound healing assay based phase contrast microscopy; type: functional
SK-MEL-28 [11] = assay: Induction of apoptosis in human SK-MEL-28 cells assessed as necrotic cells at 2.08 to 8.32 uM incubated for 48 hrs by Annexin V-FITC/propidium iodide staining based flow cytometric analysis; type: functional; settings: dose 2.08-8.32 µM
SK-MEL-28 [12] = assay: Induction of intracellular ROS generation in human SK-MEL-28 cells at 2.08 to 8.32 uM incubated for 48 hrs by […] fluorescence microscopic analysis; type: functional, cell-based; settings: dose 2.08-8.32 µM, DDE = dose-dependent effect
SK-MEL-28 [13] = assay: Induction of apoptosis in human SK-MEL-28 cells assessed as late apoptotic cells measured upto 4.16 uM incubated for 48 hrs by Annexin V-FITC/propidium iodide staining based flow cytometric analysis; type: functional, cell-based
Calf thymus DNA [14] = assay: Binding affinity to calf thymus DNA assessed as hyperchromicity at 10 to 20 uM by UV-Vis spectroscopic analysis; type: nucleic-acid assay; settings: Bos taurus; dose 10-20 µM
SK-MEL-28 [15] = assay: Induction of apoptosis in human SK-MEL-28 cells assessed as nuclear fragmentation at 2.08 to 8.32 uM incubated for 48 hrs by DAPI staining based fluorescence microscopic analysis; type: functional, cell-based; settings: dose 2.08-8.32 µM
SK-MEL-28 [16] = assay: Anti-migration activity in human SK-MEL-28 cells assessed as distance travelled at 8.32 uM by wound healing assay based phase contrast microscopy; type: functional
SK-MEL-28 [17] = assay: Induction of apoptosis in human SK-MEL-28 cells assessed as chromatin condensation at 2.08 to 8.32 uM incubated for 48 hrs by DAPI staining based fluorescence microscopic analysis; type: functional, cell-based; settings: dose 2.08-8.32 µM
Calf thymus DNA [18] = assay: Binding affinity to calf thymus DNA assessed as decrease in viscosity at 15 uM by ethidium bromide-Hoechst 33342 staining based analysis; type: nucleic-acid assay; settings: Bos taurus
SK-MEL-28 [19] = assay: Anti-migration activity in human SK-MEL-28 cells assessed as distance travelled at 2.08 uM incubated for 48 hrs by wound healing assay based phase contrast microscopy; type: functional
SK-MEL-28 [20] = assay: Inhibition of colony formation in human SK-MEL-28 cells assessed as decrease in colonies at 2.08 to 8.32 uM incubated for 7 days by crystal violet staining based assay; type: functional, cell-based; settings: dose 2.08-8.32 µM, time 7.0 day, DDE = dose-dependent effect
SK-MEL-28 [21] = assay: Induction of apoptosis in human SK-MEL-28 cells assessed as membrane blebbing at 2.08 to 8.32 uM incubated for 48 hrs by AO/EB staining based fluorescence microscopy; type: functional, cell-based; settings: dose 2.08-8.32 µM, DDE = dose-dependent effect
SK-MEL-28 [22] = assay: Induction of apoptosis in human SK-MEL-28 cells assessed as cell shrinkage at 2.08 to 8.32 uM incubated for 48 hrs by phase contrast microscopy; type: functional, cell-based; settings: dose 2.08-8.32 µM, DDE = dose-dependent effect
SK-MEL-28 [23] = assay: Inhibition of cell migration in human SK-MEL-28 cells at 2.08 to 8.32 uM incubated for 48 hrs by wound healing assay based phase contrast microscopy; type: functional; settings: dose 2.08-8.32 µM, DDE = dose-dependent effect
DNA topoisomerase 1 = target: T2, DNA topoisomerase 1 (Homo sapiens, UniProt P11387); assay: Inhibition of human DNA topoisomerase 1 assessed as reduction in pBR322 DNA relaxation incubated for 1 hrs measured by agarose gel electrophoresis method
T2 sequence (P11387 whole entry): T1 sequence (whole entry)

SK-MEL-28 [24] = assay: Anti-migration activity in human SK-MEL-28 cells assessed as distance travelled at 2.08 uM by wound healing assay based phase contrast microscopy; type: functional
[25] = Cytotoxicity against rat NRK cells assessed as cell growth inhibition incubated for 48 hrs by MTT assay; type: toxicity, cell-based
HCT-116 = assay: Cytotoxicity against human HCT-116 cells assessed as cell growth inhibition incubated for 48 hrs by MTT assay; type: functional, cell-based; settings: HCT-116, 48 h
MCF7 = assay: Cytotoxicity against human MCF7 cells assessed as cell growth inhibition incubated for 48 hrs by MTT assay; type: functional, cell-based; settings: MCF7, 48 h
SK-MEL-28 [26] = assay: Induction of apoptosis in human SK-MEL-28 cells assessed as changes in nuclear morphology at 2.08 to 8.32 uM incubated for 48 hrs by DAPI staining based fluorescence microscopic analysis; type: functional, cell-based; settings: dose 2.08-8.32 µM
SK-MEL-28 [27] = assay: Induction of apoptosis in human SK-MEL-28 cells assessed as changes in cell morphology at 2.08 to 8.32 uM incubated for 48 hrs by phase contrast microscopy; type: functional, cell-based; settings: dose 2.08-8.32 µM
SK-MEL-28 [28] = assay: Induction of apoptosis in human SK-MEL-28 cells assessed as chromatin condensation at 2.08 to 8.32 uM incubated for 48 hrs by AO/EB staining based fluorescence microscopy; type: functional, cell-based; settings: dose 2.08-8.32 µM, DDE = dose-dependent effect
A549 = assay: Cytotoxicity against human A549 cells assessed as cell growth inhibition incubated for 48 hrs by MTT assay; type: functional, cell-based; settings: A549, 48 h
SK-MEL-28 [29] = assay: Induction of apoptosis in human SK-MEL-28 cells assessed as reduction on viable cells at 2.08 to 8.32 uM incubated for 48 hrs by phase contrast microscopy; type: functional, cell-based; settings: dose 2.08-8.32 µM, DDE = dose-dependent effect

Sequence of DNA topoisomerase 2-alpha (Homo sapiens) (P11388 whole entry, the tested form may be a part): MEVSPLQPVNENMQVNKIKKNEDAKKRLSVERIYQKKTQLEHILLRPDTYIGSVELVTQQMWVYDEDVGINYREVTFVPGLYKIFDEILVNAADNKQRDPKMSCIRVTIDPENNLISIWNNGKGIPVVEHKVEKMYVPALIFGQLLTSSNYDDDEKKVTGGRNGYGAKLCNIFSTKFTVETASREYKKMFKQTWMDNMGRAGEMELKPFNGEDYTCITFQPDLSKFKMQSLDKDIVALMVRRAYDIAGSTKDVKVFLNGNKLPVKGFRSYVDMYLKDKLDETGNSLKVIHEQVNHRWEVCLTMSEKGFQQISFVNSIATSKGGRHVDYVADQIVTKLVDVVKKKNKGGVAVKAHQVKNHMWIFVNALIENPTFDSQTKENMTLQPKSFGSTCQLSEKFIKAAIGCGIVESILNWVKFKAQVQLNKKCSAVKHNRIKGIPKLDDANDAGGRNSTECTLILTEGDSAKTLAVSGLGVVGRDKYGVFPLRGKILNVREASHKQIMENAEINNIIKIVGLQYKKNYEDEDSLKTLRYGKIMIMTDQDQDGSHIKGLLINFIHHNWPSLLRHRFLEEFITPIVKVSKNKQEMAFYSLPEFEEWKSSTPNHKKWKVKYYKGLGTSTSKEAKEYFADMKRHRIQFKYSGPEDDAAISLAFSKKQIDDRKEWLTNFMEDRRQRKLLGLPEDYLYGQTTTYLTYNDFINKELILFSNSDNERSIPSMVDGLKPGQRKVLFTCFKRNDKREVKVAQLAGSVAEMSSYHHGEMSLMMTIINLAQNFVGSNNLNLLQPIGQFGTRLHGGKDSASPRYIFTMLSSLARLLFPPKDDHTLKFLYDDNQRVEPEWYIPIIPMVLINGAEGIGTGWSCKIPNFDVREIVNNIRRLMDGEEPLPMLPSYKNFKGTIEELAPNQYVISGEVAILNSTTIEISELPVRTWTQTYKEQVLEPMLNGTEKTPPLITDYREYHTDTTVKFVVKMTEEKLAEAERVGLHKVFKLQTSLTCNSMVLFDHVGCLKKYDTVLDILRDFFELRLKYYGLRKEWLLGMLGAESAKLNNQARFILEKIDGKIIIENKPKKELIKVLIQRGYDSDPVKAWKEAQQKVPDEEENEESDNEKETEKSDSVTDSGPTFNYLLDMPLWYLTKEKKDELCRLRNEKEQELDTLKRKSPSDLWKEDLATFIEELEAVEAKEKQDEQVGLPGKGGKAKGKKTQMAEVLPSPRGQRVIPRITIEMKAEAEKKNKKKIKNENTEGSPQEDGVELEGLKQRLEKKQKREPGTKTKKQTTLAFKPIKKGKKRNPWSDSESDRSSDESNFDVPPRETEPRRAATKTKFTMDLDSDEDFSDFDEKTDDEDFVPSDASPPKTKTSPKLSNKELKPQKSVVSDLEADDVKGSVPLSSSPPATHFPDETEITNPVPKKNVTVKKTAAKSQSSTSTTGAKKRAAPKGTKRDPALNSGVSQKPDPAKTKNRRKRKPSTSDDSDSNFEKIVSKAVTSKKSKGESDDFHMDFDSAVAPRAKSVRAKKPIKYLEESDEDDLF

- inhibition [5]: Active
- inhibition [7]: 17%
- Activity (Calf thymus DNA [8]): Active
- Activity (Calf thymus DNA [14]): Active
- Activity (Calf thymus DNA [18]): Active
- pIC50 (DNA topoisomerase 1): 4.47
Compound: Cc1ccc(C/N=C2\NC(=O)/C(=C3\CCNC(=O)c4[nH]ccc43)S2)cc1
- Activity (SK-MEL-28 [1]): 736.33 um
- pIC50 (HT-29): 5.17
- Activity (SK-MEL-28 [2]): Dde
- Activity (SK-MEL-28 [3]): Dde
- pIC50 (SK-MEL-28 [4]): 5.38
- Activity (SK-MEL-28 [6]): Dde
- Activity (SK-MEL-28 [9]): 568.42 um
- Activity (SK-MEL-28 [10]): 573.08 um
- Activity (SK-MEL-28 [11]): 4.84%
- Activity (SK-MEL-28 [12]): Dde
- Activity (SK-MEL-28 [13]): Active
- Activity (SK-MEL-28 [15]): Active
- Activity (SK-MEL-28 [16]): 798.09 um
- Activity (SK-MEL-28 [17]): Active
- Activity (SK-MEL-28 [19]): 434.44 um
- inhibition (SK-MEL-28 [20]): Dde
- Activity (SK-MEL-28 [21]): Dde
- Activity (SK-MEL-28 [22]): Dde
- inhibition (SK-MEL-28 [23]): Dde
- Activity (SK-MEL-28 [24]): 670 um
- IC50 at 48 h [25]: 41.9 µM
- pIC50 (HCT-116): 5.32
- pIC50 (MCF7): 5.09
- Activity (SK-MEL-28 [26]): Active
- Activity (SK-MEL-28 [27]): Active
- Activity (SK-MEL-28 [28]): Dde
- pIC50 (A549): 5.04
- Activity (SK-MEL-28 [29]): Dde

— ChEMBL document CHEMBL5137032, “Design, synthesis of DNA-interactive 4-thiazolidinone-based indolo-/pyrroloazepinone conjugates as potential cytotoxic and topoisomerase I inhibitors” (Eur J Med Chem, 2022)
